According to patent US4337272A, “Amino-ethanol derivatives” (Valeas S. R. L. Industria Chimica E Farmaceutica, priority 1975, dated 1982):
Where a name gives a salt, the structure may show the parent alone.

Key:
[1] = tested on: bronchospasm induced by Acetilcholine in conscious guinea pig; assay: Prevention of acetylcholine-induced bronchospasm in conscious guinea pig by inhalation (Armitage method)
[2] = Acute toxicity LD50 (Litchfield and Wilcoxon); settings: in vivo
[3] = tested on: Guinea Pig airway constriction; settings: i.v.; literature (Duhault et al.); cited from earlier work

## CC(C)NCC(O)c1cc(O)cc(O)c1 (centres unmarked) [Orciprenaline, reference compound]
[1]
  time before sign of dispnea (mean): 502 ± 67 s
[2]
  LD50: 380 mg/kg

## COc1ccc(CC(C)NCC(O)c2cc(N)cc(CO)c2)cc1 (centres unmarked) [VAL 5000/PM, 1-(5-amino-3 hydroxymethyl) phenyl-2-(1 p-methoxyphenyl-2-propylamino)ethanol dihydrochloride]
[1]
  time before sign of dispnea (mean): 475 ± 60 s
[2]
  LD50: 295 mg/kg

## Cn1c(=O)c2[nH]cnc2n(C)c1=O [Theophylline]
[3]
  active dose in the experimental bronchospasm according to Konzett-Rossler: 25 mg/kg
